Experimental data: patent US7001983B1, “Antipathogenic synthetic peptides and compositions comprising them” (priority 1997, dated 2006)
Square brackets hold non-standard residues; d marks the D form. Peptide text beside a SMILES is read from it.

Assays:
Format in all cases: cell-based
Bacillus megaterium Bm11 = conditions: 100% inhibition of growth after 18–20 h
Escherichia coli D21 = conditions: 100% inhibition of growth after 18–20 h
[1] = system: human red blood cells (hRBC); experiment: Hemolysis of human red blood cells; conditions: hRBC, 30 min at 37° C.
Method: (ix) Hemolysis of human red blood cells. The peptides were tested for their hemolytic activities against human red blood cells (hRBC). Fresh hRBC with EDTA were rinsed 3 times with PBS (35 mM phosphate buffer/0.15 M NaCl, pH 7.3) by centrifugation for 10 min at 800 g and resuspended in PBS. Peptides dissolved in PBS were then added to 50 μL of a solution of the stock hRBC in PBS to reach a final volume of 100 μL (final erythrocyte concentration, 5% v/v). The resulting suspension was incubated under agitation for 30 min at 37° C. The samples were then centrifuged at 800 g for 10 min. Release of hemoglobin was monitored by measuring the absorbance of the supernatant at 540 nm. Controls for zero hemolysis (blank) and 100% hemolysis consisted of hRBC suspended in PBS and Triton 1%, respectively.

**Q.** What does the source list for `C[C@H](NC(=O)[C@H](C)NC(=O)[C@H](CCCCN)NC(=O)[C@@H](C)NC(=O)[C@@H](C)NC(=O)[C@H](C)NC(=O)[C@@H](N)CCCCN)C(=O)N[C@H](C)C(=O)N[C@@H](CCCCN)C(=O)N[C@H](C)C(=O)N[C@@H](C)C(=O)N[C@@H](CCCCN)C(N)=O` [Peptide 33, [D]-A^3,4,8,10-K4A8] (H-KA[dA][dA]KAA[dA]K[dA]AK-NH2)?
**A.** Minimal Inhibitory Concentration B. megaterium (Bm11) (Bacillus megaterium Bm11): 1 µM; Minimal Inhibitory Concentration E. coli (D21) (Escherichia coli D21): 12 µM; % hemolysis at 100 μM [1]: 0%

**Q.** Which results are given for `CC(C)C[C@H](NC(=O)[C@@H](CC(C)C)NC(=O)[C@H](CC(C)C)NC(=O)[C@@H](CC(C)C)NC(=O)[C@@H](N)CCCCN)C(=O)N[C@@H](CCCCN)C(=O)O` [Peptide 28, [D]-L^2,4-K2L4] (H-K[dL]L[dL]LK-OH)?
**A.** Minimal Inhibitory Concentration B. megaterium (Bm11) (Bacillus megaterium Bm11): 50 µM; Minimal Inhibitory Concentration E. coli (D21) (Escherichia coli D21): 200 µM; % hemolysis at 100 μM [1]: 0%

**Q.** What does the source list for `CC(C)C[C@H](NC(=O)[C@@H](CC(C)C)NC(=O)[C@H](CCCCN)NC(=O)[C@@H](CC(C)C)NC(=O)[C@H](CC(C)C)NC(=O)[C@@H](CC(C)C)NC(=O)[C@@H](N)CCCCN)C(=O)N[C@@H](CCCCN)C(=O)O` [Peptide 29, [D]-L^2,4,6-K3L5] (H-K[dL]L[dL]K[dL]LK-OH)?
**A.** Minimal Inhibitory Concentration B. megaterium (Bm11) (Bacillus megaterium Bm11): 3 µM; Minimal Inhibitory Concentration E. coli (D21) (Escherichia coli D21): 3 µM; % hemolysis at 100 μM [1]: 0%

**Q.** How did the “Minimal Inhibitory Concentration B. megaterium (Bm11)” value (Bacillus megaterium Bm11) turn out when `CC[C@H](C)[C@H](NC(=O)[C@H](CCCCN)NC(=O)[C@@H]1CCCN1C(=O)[C@@H](NC(=O)[C@@H](CC(C)C)NC(=O)[C@H](C)NC(=O)[C@H](Cc1ccccc1)NC(=O)[C@H](Cc1ccccc1)NC(=O)CN)[C@@H](C)CC)C(=O)N[C@H](C(=O)N[C@@H](CO)C(=O)N[C@@H](CO)C(=O)N1CCC[C@H]1C(=O)N[C@@H](CC(C)C)C(=O)N[C@@H](Cc1ccccc1)C(=O)N[C@@H](CCCCN)C(=O)N[C@H](C(=O)N[C@@H](CC(C)C)C(=O)N[C@H](CC(C)C)C(=O)N[C@@H](CO)C(=O)N[C@@H](C)C(=O)N[C@H](C(=O)NCC(=O)N[C@@H](CO)C(=O)N[C@@H](C)C(=O)N[C@@H](CC(C)C)C(=O)N[C@@H](CO)C(=O)N[C@@H](CO)C(=O)N[C@@H](CO)C(=O)NCC(=O)NCC(=O)N[C@@H](CCC(N)=O)C(=O)N[C@@H](CCC(=O)NCCN)C(=O)NCCN)C(C)C)[C@@H](C)O)[C@@H](C)CC` [Peptide 10, [D]L^5L^19-TApar] was run?
**A.** Its value is 1.3 µM.

**Q.** And the “Minimal Inhibitory Concentration E. coli (D21)” value (Escherichia coli D21)?
**A.** The value was 3 µM.

**Q.** What about the “% hemolysis at 50 μM peptide” value [1] of the same compound?
**A.** The value was 56%.

**Q.** What does the source list for `CC[C@H](C)[C@H](NC(=O)[C@H](CCCCN)NC(=O)[C@H]1CCCN1C(=O)[C@@H](NC(=O)[C@H](CC(C)C)NC(=O)[C@H](C)NC(=O)[C@H](Cc1ccccc1)NC(=O)[C@H](Cc1ccccc1)NC(=O)CN)[C@@H](C)CC)C(=O)N[C@H](C(=O)N[C@@H](CO)C(=O)N[C@@H](CO)C(=O)N1CCC[C@H]1C(=O)N[C@@H](CC(C)C)C(=O)N[C@@H](Cc1ccccc1)C(=O)N[C@@H](CCCCN)C(=O)N[C@H](C(=O)N[C@@H](CC(C)C)C(=O)N[C@@H](CC(C)C)C(=O)N[C@@H](CO)C(=O)N[C@@H](C)C(=O)N[C@H](C(=O)NCCN)C(C)C)[C@@H](C)O)[C@@H](C)CC` [Peptide 17, [D]P^7[1-22]-TApar]?
**A.** Minimal Inhibitory Concentration B. megaterium (Bm11) (Bacillus megaterium Bm11): 1 µM; Minimal Inhibitory Concentration E. coli (D21) (Escherichia coli D21): 10 µM; % hemolysis at 50 μM peptide [1]: 17%

**Q.** What does the source list for `CC[C@H](C)[C@@H]1NC(=O)[C@H](CCCCN)NC(=O)[C@H]2CCCN2C(=O)[C@H]([C@@H](C)CC)NC(=O)[C@H](CC(C)C)NC(=O)[C@H](C)NC(=O)[C@H](Cc2ccccc2)NC(=O)[C@H](Cc2ccccc2)NC(=O)CNC(=O)[C@H](CCCCN)NC(=O)[C@H](CCCCN)NC(=O)[C@@H](N)CSSC[C@@H](C(=O)O)NC(=O)[C@H](C(C)C)NC(=O)[C@H](C)NC(=O)[C@H](CO)NC(=O)[C@@H](CC(C)C)NC(=O)[C@@H](CC(C)C)NC(=O)[C@H]([C@@H](C)O)NC(=O)[C@H](CCCCN)NC(=O)[C@H](Cc2ccccc2)NC(=O)[C@H](CC(C)C)NC(=O)[C@@H]2CCCN2C(=O)[C@H](CO)NC(=O)[C@H](CO)NC(=O)[C@H]([C@@H](C)CC)NC1=O` [Peptide 87, Cyclic K^1K^2[D]P^7L^18L^19[1-22]-par]?
**A.** Minimal Inhibitory Concentration B. megaterium (Bm11) (Bacillus megaterium Bm11): 6 µM; Minimal Inhibitory Concentration E. coli (D21) (Escherichia coli D21): 15 µM; % hemolysis at 100 μM [1]: 0%

**Q.** `CC[C@H](C)[C@@H]1NC(=O)[C@H](CCCCN)NC(=O)[C@H]2CCCN2C(=O)[C@H]([C@@H](C)CC)NC(=O)[C@H](CC(C)C)NC(=O)[C@H](C)NC(=O)[C@H](Cc2ccccc2)NC(=O)[C@H](Cc2ccccc2)NC(=O)CNC(=O)[C@H](CCCCN)NC(=O)[C@@H](N)CSSC[C@@H](C(=O)O)NC(=O)[C@H](C(C)C)NC(=O)[C@H](C)NC(=O)[C@H](CO)NC(=O)[C@@H](CC(C)C)NC(=O)[C@@H](CC(C)C)NC(=O)[C@H]([C@@H](C)O)NC(=O)[C@H](CCCCN)NC(=O)[C@H](Cc2ccccc2)NC(=O)[C@H](CC(C)C)NC(=O)[C@@H]2CCCN2C(=O)[C@H](CO)NC(=O)[C@H](CO)NC(=O)[C@H]([C@@H](C)CC)NC1=O` [Peptide 86, Cyclic K^1[D]P^7L^18L^19[1-22]-par] was tested. Which “Minimal Inhibitory Concentration B. megaterium (Bm11)” value (Bacillus megaterium Bm11) did it give?
**A.** The value was 10 µM.

**Q.** What about the “Minimal Inhibitory Concentration E. coli (D21)” value (Escherichia coli D21) of the same compound?
**A.** Its value is 30 µM.

**Q.** What about the “% hemolysis at 100 μM” value [1] of the same compound?
**A.** Its value is 0%.

**Q.** How did the “Minimal Inhibitory Concentration B. megaterium (Bm11)” value (Bacillus megaterium Bm11) turn out when `CC(C)C[C@H](NC(=O)[C@H](CC(C)C)NC(=O)[C@@H](CC(C)C)NC(=O)[C@H](N)CCCCN)C(=O)N[C@H](CCCCN)C(=O)N[C@H](CC(C)C)C(=O)N[C@H](CC(C)C)C(=O)N[C@@H](CC(C)C)C(=O)N[C@H](CCCCN)C(=O)N[C@@H](CC(C)C)C(=O)N[C@H](CC(C)C)C(=O)N[C@H](CCCCN)C(N)=O` [Peptide 26, [D]-K^1,5,9,12L^2,6,7,11-K4L8] (H-[dK][dL]LL[dK][dL][dL]L[dK]L[dL][dK]-NH2) was run?
**A.** Its value is 0.5 µM.

**Q.** What about the “Minimal Inhibitory Concentration E. coli (D21)” value (Escherichia coli D21) of the same compound?
**A.** The value was 4 µM.

**Q.** And the “% hemolysis at 100 μM” value [1]?
**A.** The value was 0%.

**Q.** For `CC[C@H](C)[C@@H]1NC(=O)[C@H](CCCCN)NC(=O)[C@H]2CCCN2C(=O)[C@H]([C@@H](C)CC)NC(=O)[C@H](CC(C)C)NC(=O)[C@H](C)NC(=O)[C@H](Cc2ccccc2)NC(=O)[C@H](Cc2ccccc2)NC(=O)CNC(=O)[C@H](CCCCN)NC(=O)[C@H](CCCCN)NC(=O)[C@H](CCCCN)NC(=O)[C@@H](N)CSSC[C@@H](C(=O)O)NC(=O)[C@H](C(C)C)NC(=O)[C@H](C)NC(=O)[C@H](CO)NC(=O)[C@@H](CC(C)C)NC(=O)[C@@H](CC(C)C)NC(=O)[C@H]([C@@H](C)O)NC(=O)[C@H](CCCCN)NC(=O)[C@H](Cc2ccccc2)NC(=O)[C@H](CC(C)C)NC(=O)[C@@H]2CCCN2C(=O)[C@H](CO)NC(=O)[C@H](CO)NC(=O)[C@H]([C@@H](C)CC)NC1=O` [Peptide 88, Cyclic K^1K^2K^3[D]P^7L^18L^19[1-22]-par], which “Minimal Inhibitory Concentration B. megaterium (Bm11)” value (Bacillus megaterium Bm11) is on record?
**A.** The value was 2 µM.

**Q.** And the “Minimal Inhibitory Concentration E. coli (D21)” value (Escherichia coli D21)?
**A.** The value was 7.5 µM.

**Q.** What about the “% hemolysis at 100 μM” value [1] of the same compound?
**A.** The value was 0%.
